Measured values published in US9422263B2, “Fluoro-substituted 3,5-dicyano-4-(1H-indazol-5-yl)-2,6-dimethyl-1,4-dihydropyridine derivatives and methods of use thereof” (BAYER PHARMA AKTIENGESELLSCHAFT, priority 2009, dated 2016).
Like-named read-outs stand apart in the source and are kept apart here.

Assays:
[1] = Caco-2 permeability assay; type: in vitro ADME; settings: human, apical to basolateral, 2 h at 37° C.
Text: Caco-2 Permeability Assay:
The in vitro permeation of a test compound across a Caco-2 cell monolayer is a well-established assay system to predict the permeability from the gastro-intestinal tract [cf. P. Artursson and J. Karlsson: Correlation between oral drug absorption in humans and apparent drug permeability coefficients in human intestinal epithelial (Caco-2) cells, Biochem. Biophys. 175 (3), 880-885 (1991)]. The permeability of the compounds of the present invention in such Caco-2 cells was determined as described below:
Human caco-2 cells (ACC No. 169, DSMZ, German Collection of Microorganisms and Cell Cultures, Braunschweig, Germany) are seeded on 24-well insert plates and are allowed to grow for 14-16 days. For permeability studies, the test compounds are dissolved in DMSO and diluted to the final test concentration of 2 μM with transport buffer [Hanks' Buffered Salt Solution, Gibco/Invitrogen, further supplemented with glucose (final concentration 19.9 mM) and HEPES (final concentration 9.8 mM)]. For determination of the apical to basolateral permeability (PappA-B), the test compound solution is added to the apical side of the cell monolayer and transport buffer to the basolateral side of the monolayer; for determination of the basolateral to apical permeability (PappB-A), the test compound solution is added to the basolateral side of the cell monolayer and transport buffer to the apical side of the monolayer. Samples are taken from the donor compartment at the beginning of the experiment to confirm mass balance. After an incubation of 2 h at 37° C., samples are taken from both compartments. Samples are analyzed by LC-MS/MS, and the apparent permeability coefficients are calculated. Lucifer Yellow permeability is assayed for each cell monolayer to ensure cell monolayer integrity, and the permeability of Atenolol (low permeability marker) and Sulfasalazine (marker for active excretion) is determined for each batch as quality control.

[2] = Pharmacokinetics after intravenous administration of test compounds; type: in vivo, rat; settings: for in vivo PK, rat i.v. CLblood: male Wistar rats, total blood clearance; for in vivo PK, rat i.v. Fmax, calc: Fmax,calc=[1−CLblood/Qh]*100, Qh 4.2 L per h per kg
Procedure: Pharmacokinetics after Intravenous Administration of Test Compounds: Male Wistar rats (Harlan Laboratories) are anesthetized and a catheter is inserted into the jugular vein of the rat. The next day, a defined dose of the test compound is administered as solution by injection into the tail vein. Blood samples are collected through the jugular catheter during the next 24 h (8-11 time points). Blood is centrifuged in heparin-tubes, and each plasma sample is treated with acetonitrile for protein precipitation. After centrifugation, the test compound in the supernatant is quantified using an LC-MS/MS method. The determined plasma concentrations are used for the calculation of pharmacokinetic parameters, such as AUC (area under the plasma concentration vs. time curve), Vss (volume of distribution under steady-state conditions), Cmax (highest test compound concentration observed in plasma following administration), t1/2 (half-life) and CL (total clearance of the test compound from the plasma). For the calculation of the blood clearance, the blood to plasma partitioning is determined by incubation of the test compound in blood of rats. After separation of the plasma by centrifugation, the concentration in the plasma is determined by an LC-MS/MS method. Under the assumption that the test compound is completely absorbed, the theoretically maximum achievable bioavailability Fmax,calc is calculated by the equation Fmax,calc=[1−CLblood/Qh]*100, wherein CLblood is the total blood clearance and Qh is the hepatic blood flow in rat of 4.2 L per h per kg.

[3] = Pharmacokinetics after peroral administration of test compounds; type: in vivo, rat; settings: for in vivo PK, rat p.o. F / in vivo PK, rat p.o. AUCnorm: male Wistar rats; for in vivo PK, rat p.o. F: bioavailability; for in vivo PK, rat p.o. AUCnorm: dose and body weight-normalized AUC; for Fraction absorbed fabs, calc: rat p.o., fabs,calc=[F/Fmax,calc]*100
Procedure: Pharmacokinetics after Peroral Administration of Test Compounds: Male Wistar rats (Harlan Laboratories) are anesthetized and a catheter is inserted into the jugular vein of the rat. The next day, a defined dose of the test compound is administered perorally. Blood samples are collected through the jugular catheter during the next 24 h (8-11 time points). Blood is centrifuged in heparin-tubes, and each plasma sample is treated with acetonitrile for protein precipitation. After centrifugation, the test compound in the supernatant is quantified using an LC-MS/MS method. The determined plasma concentrations are used for the determination of pharmacokinetic parameters, such as AUC (area under the plasma concentration vs. time curve), Cmax (highest test compound concentration observed in plasma following administration), t1/2 (half-life) and F (bioavailability). The fraction of the dose absorbed (fabs,calc) is calculated by the equation fabs,calc=[F/Fmax,calc]*100, wherein F is the determined bioavailability after peroral administration and Fmax,calc is the theoretically maximum achievable bioavailability considering the determined blood clearance and assuming that the test compound is completely absorbed.

[4] = biological target: Recombinant human c-Met protein (Homo sapiens (Human), UniProt P08581); assay: c-Met receptor tyrosine kinase activity assay (NADH read-out); type: biochemical; settings: ATP 30 μM, c-Met 30 nM
Sequence of Recombinant human c-Met protein (P08581 25-1390): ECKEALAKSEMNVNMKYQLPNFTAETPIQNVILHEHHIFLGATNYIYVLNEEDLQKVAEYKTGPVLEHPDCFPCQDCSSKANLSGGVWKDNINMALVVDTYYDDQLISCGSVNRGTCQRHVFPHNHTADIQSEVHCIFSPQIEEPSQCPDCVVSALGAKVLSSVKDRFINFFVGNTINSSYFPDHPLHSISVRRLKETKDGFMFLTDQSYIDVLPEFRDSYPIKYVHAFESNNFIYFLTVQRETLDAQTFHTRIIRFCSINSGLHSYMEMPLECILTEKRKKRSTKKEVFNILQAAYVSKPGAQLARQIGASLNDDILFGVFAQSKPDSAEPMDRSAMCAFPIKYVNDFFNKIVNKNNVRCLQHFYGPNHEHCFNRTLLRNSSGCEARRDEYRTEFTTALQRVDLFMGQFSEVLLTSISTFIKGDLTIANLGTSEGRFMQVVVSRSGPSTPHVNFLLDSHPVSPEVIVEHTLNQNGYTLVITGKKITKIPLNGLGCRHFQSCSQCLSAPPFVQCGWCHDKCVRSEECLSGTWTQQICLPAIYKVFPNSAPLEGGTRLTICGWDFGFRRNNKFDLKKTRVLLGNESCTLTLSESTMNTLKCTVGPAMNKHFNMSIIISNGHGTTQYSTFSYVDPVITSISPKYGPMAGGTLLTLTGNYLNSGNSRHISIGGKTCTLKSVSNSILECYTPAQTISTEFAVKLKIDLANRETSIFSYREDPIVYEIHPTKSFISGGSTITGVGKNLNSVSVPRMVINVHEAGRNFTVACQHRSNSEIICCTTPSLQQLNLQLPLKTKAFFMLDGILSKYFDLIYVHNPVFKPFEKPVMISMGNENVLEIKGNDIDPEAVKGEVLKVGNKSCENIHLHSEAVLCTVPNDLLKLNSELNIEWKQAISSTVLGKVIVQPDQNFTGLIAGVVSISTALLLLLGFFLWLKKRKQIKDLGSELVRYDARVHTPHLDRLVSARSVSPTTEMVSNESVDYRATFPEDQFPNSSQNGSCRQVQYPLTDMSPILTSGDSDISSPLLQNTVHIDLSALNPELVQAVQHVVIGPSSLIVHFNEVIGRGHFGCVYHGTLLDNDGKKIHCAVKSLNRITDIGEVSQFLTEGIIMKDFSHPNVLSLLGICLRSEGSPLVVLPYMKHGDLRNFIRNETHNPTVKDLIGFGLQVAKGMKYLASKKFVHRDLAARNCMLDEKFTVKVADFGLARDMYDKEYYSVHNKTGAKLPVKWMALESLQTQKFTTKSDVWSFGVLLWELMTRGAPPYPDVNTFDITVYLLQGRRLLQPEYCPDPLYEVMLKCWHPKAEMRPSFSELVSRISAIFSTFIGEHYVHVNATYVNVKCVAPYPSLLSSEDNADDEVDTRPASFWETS
Procedure: c-Met Receptor Tyrosine Kinase Activity Assay (NADH Read-Out):
Recombinant human c-Met protein (Invitrogen, Carlsbad, Calif., USA) is used. As substrate for the kinase reaction the peptide KKKSPGEYVNIEFG (JPT, Germany) is used. For the assay, 1 μL of a 51-fold concentrated solution of the test compound in DMSO is pipetted into a white 384-well microtiter plate (Greiner Bio-One, Frickenhausen, Germany). 25 μL of a solution of c-Met (final concentration 30 nM) and pyruvate kinase/lactate dehydrogenase (Roche Diagnostics, Mannheim, Germany; final concentration 8 mg/L) in assay buffer [3-(N-morpholino)propanesulfonic acid (MOPS), 50 mM, pH 7; MgCl2, 10 mM; bovine serum albumin (BSA), 0.01%; Triton X 100, 0.01%; DTT, 2 mM] are added, and the mixture is incubated for 5 min at room temperature. Then, the kinase reaction is started by the addition of 25 μL of a solution of adenosine triphosphate (ATP, final concentration 30 μM), substrate (final concentration 100 μM), nicotinamide adenine dinucleo-tide (NADH, final concentration 50 μM) and dithiothreitol (DTT, final concentration 2 mM) in assay buffer, and the resulting mixture is incubated for a reaction time of 100 min at 32° C.
Subsequently, the amount of phosphorylated substrate is evaluated by measurement of the decrease of NADH fluorescence. Therefore, the fluorescence emissions at 465 nm after excitation at 340 nm is measured in a fluorescence reader, e.g. Tecan Ultra (Tecan, Männedorf, Switzerland). The data are normalised (enzyme reaction without inhibitor=0% inhibition; all other assay components but no enzyme=100% inhibition).

[5] = Table 3, read-out: Caco-2 permeability PappA-B
[6] = Table 4, read-out: Caco-2 permeability PappA-B

Row | Structure (SMILES) | Papp at 2 h, 2 μM [1, 5] | in vivo PK, rat i.v. CLblood [2] | in vivo PK, rat i.v. Fmax, calc [2] | in vivo PK, rat p.o. F [3] | Fraction absorbed fabs, calc [3] | Papp at 2 h, 2 μM [1, 6] | IC50 [4] | in vivo PK, rat p.o. AUCnorm [3]
1 | CC1=C(C#N)C(c2cc3c(C)n[nH]c3cc2F)C(C#N)=C(C(F)F)N1 (racemic) [Example 7, rac-2-(Difluoromethyl)-4-(6-fluoro-3-methyl-1H-indazol-5-yl)-6-methyl-1,4-dihydropyridine-3,5-dicarbonitrile] | 22 ×10⁻⁶ cm/s | 1.60 L/h/kg | 62% | 68% | 109% | – | – | 0.69 kg·h/L
2 | CC1=C(C#N)C(c2cc3cn[nH]c3cc2F)C(C#N)=C(C(F)F)N1 (racemic) [Example 16, rac-2-(Difluoromethyl)-4-(6-fluoro-1H-indazol-5-yl)-6-methyl-1,4-dihydropyridine-3,5-dicarbonitrile] | – | – | – | – | – | 22.6 ×10⁻⁶ cm/s | – | –
3 | CC1=C(C#N)C(c2ccc3[nH]nc(C)c3c2)C(C#N)=C(C(F)(F)F)N1 (single isomer, unassigned) [Example 5] | – | – | – | – | – | – | 12 nM | –
4 | CC1=C(C#N)C(c2cc3c(C)n[nH]c3cc2F)C(C#N)=C(C(F)F)N1 (single isomer, unassigned) [Example 8, 2-(Difluoromethyl)-4-(6-fluoro-3-methyl-1H-indazol-5-yl)-6-methyl-1,4-dihydropyridine-3,5-dicarbonitrile] | – | – | – | – | – | – | 9 nM | –
5 | CC1=C(C#N)C(c2cc3c(C)n[nH]c3cc2F)C(C#N)=C(C(F)(F)F)N1 (single isomer, unassigned) [Example 12, 4-(6-Fluoro-3-methyl-1H-indazol-5-yl)-2-methyl-6-(trifluoromethyl)-1,4-dihydropyridine-3,5-dicarbonitrile] | 18.7 ×10⁻⁶ cm/s | 0.79 L/h/kg | 81% | 48% | 59% | – | – | 1.1 kg·h/L
6 | CC1=C(C#N)C(c2cc3cn[nH]c3cc2F)C(C#N)=C(C(F)F)N1 (single isomer, unassigned) [Example 17, 2-(Difluoromethyl)-4-(6-fluoro-1H-indazol-5-yl)-6-methyl-1,4-dihydropyridine-3,5-dicarbonitrile] | – | – | – | – | – | – | 11 nM | –
7 | Cc1n[nH]c2ccc(C3C(C#N)=C(C(F)F)NC(C(F)F)=C3C#N)cc12 [Example 13, 2,6-Bis(difluoromethyl)-4-(3-methyl-1H-indazol-5-yl)-1,4-dihydropyridine-3,5-dicarbonitrile] | 39.3 ×10⁻⁶ cm/s | 0.17 L/h/kg | 96% | 70% | 73% | – | – | 6.16 kg·h/L
8 | N#CC1=C(C(F)F)NC(C(F)F)=C(C#N)C1c1cc2cn[nH]c2cc1F [Example 15, 2,6-Bis(difluoromethyl)-4-(6-fluoro-1H-indazol-5-yl)-1,4-dihydropyridine-3,5-dicarbonitrile] | 16.9 ×10⁻⁶ cm/s | 0.23 L/h/kg | 95% | 63% | 66% | – | – | 3.87 kg·h/L

Now from value to compound, other results behind:

Row | Papp at 2 h, 2 μM [1, 5] | in vivo PK, rat i.v. CLblood [2] | in vivo PK, rat i.v. Fmax, calc [2] | in vivo PK, rat p.o. F [3] | Fraction absorbed fabs, calc [3] | Papp at 2 h, 2 μM [1, 6] | IC50 [4] | Structure (SMILES) | in vivo PK, rat p.o. AUCnorm [3]
9 | 17.6 ×10⁻⁶ cm/s | 2.19 L/h/kg | 48% | 40% | 84% | – | – | CC1=C(C#N)C(c2cc3cn[nH]c3cc2F)C(C#N)=C(C(F)(F)F)N1 (racemic) [Example 19, rac-4-(6-Fluoro-1H-indazol-5-yl)-2-methyl-6-(trifluoromethyl)-1,4-dihydropyridine-3,5-dicarbonitrile] | 0.33 kg·h/L
10 | – | – | – | – | – | 20 ×10⁻⁶ cm/s | 27 nM | CC1=C(C#N)C(c2ccc3[nH]ncc3c2)C(C#N)=C(C(F)(F)F)N1 (racemic) [Example 20, rac-4-(1H-Indazol-5-yl)-2-methyl-6-(trifluoromethyl)-1,4-dihydropyridine-3,5-dicarbonitrile] | –
11 | – | – | – | – | – | 38.8 ×10⁻⁶ cm/s | – | CC1=C(C#N)C(c2ccc3[nH]nc(C)c3c2)C(C#N)=C(C(F)(F)F)N1C (racemic) [Example 42, rac-1,2-Dimethyl-4-(3-methyl-1H-indazol-5-yl)-6-(trifluoromethyl)-1,4-dihydropyridine-3,5-dicarbonitrile] | –
12 | – | – | – | – | – | – | 9 nM | CC1=C(C#N)C(c2ccc3[nH]nc(C)c3c2)C(C#N)=C(C(F)(F)F)N1C (single isomer, unassigned) [Example 43, 1,2-Dimethyl-4-(3-methyl-1H-indazol-5-yl)-6-(trifluoromethyl)-1,4-dihydropyridine-3,5-dicarbonitrile] | –
13 | – | – | – | – | – | – | 8 nM | CC1=C(C#N)C(c2ccc3[nH]nc(C)c3c2)C(C#N)=C(C(F)(F)F)N1C (single isomer, unassigned) [Example 44, 1,2-Dimethyl-4-(3-methyl-1H-indazol-5-yl)-6-(trifluoromethyl)-1,4-dihydropyridine-3,5-dicarbonitrile] | –
14 | – | – | – | – | – | 20.2 ×10⁻⁶ cm/s | 28 nM | N#CC1=C(C(F)F)NC(C(F)F)=C(C#N)C1c1ccc2[nH]ncc2c1 [Example 24, 2,6-Bis(difluoromethyl)-4-(1H-indazol-5-yl)-1,4-dihydropyridine-3,5-dicarbonitrile] | –
15 | – | – | – | – | – | 29 ×10⁻⁶ cm/s | – | CCc1n[nH]c2ccc(C3C(C#N)=C(C(F)F)NC(C(F)F)=C3C#N)cc12 [Example 25, 2,6-Bis(difluoromethyl)-4-(3-ethyl-1H-indazol-5-yl)-1,4-dihydropyridine-3,5-dicarbonitrile] | –
16 | – | – | – | – | – | 34.8 ×10⁻⁶ cm/s | – | Cc1n[nH]c2ccc(C3C(C#N)=C(C(F)(F)F)NC(C(F)(F)F)=C3C#N)cc12 [Example 26, 4-(3-Methyl-1H-indazol-5-yl)-2,6-bis(trifluoromethyl)-1,4-dihydropyridine-3,5-dicarbonitrile] | –
